According to patent publication US10966426B2, “Herbicidal compositions comprising phenylpyrimidines” (BASF SE, priority 2016, dated 2021):

Tests used:
Format in all cases: in vivo
Poa annua = assay: greenhouse post-emergence treatment, POAAN; conditions: Poa annua
Method: (§1) The culture containers used were plastic pots containing loamy sand with approximately 3.0% of humus as substrate. The seeds of the test plants were sown separately for each species.
(§2) For the post-emergence treatment, the test plants were grown to a plant height of from 3 to 15 cm, depending on the plant habit, and only then treated with the active compounds which had been suspended or emulsified in water. To this end, the test plants were either sown directly, and grown in the same containers, or they were first grown separately as seedlings and transplanted into the test containers a few days prior to treatment.
(§3) Depending on the species, the plants were kept at 10-25° C. and 20-35° C., respectively.
(§4) The test period extended over 2 to 4 weeks. During this time, the plants were tended and their response to the individual treatments was evaluated.
(§5) Evaluation was carried out using a scale from 0 to 100. 100 means no emergence of the plants, or complete destruction of at least the above-ground parts, and 0 means no damage or normal course of growth. A good herbicidal activity is given at values of at least 70, and very good herbicidal activity is given at values of at least 85.
(§6) The respective stated components A and B, and if appropriate, C were formulated as a 10% by weight strength emulsion concentrate and, with addition of the amount of solvent system, introduced into the spray liquor used for applying the active compound. In the examples, the solvent used was water.
(§7) In the examples below, using the method of S. R. Colby (1967) “Calculating synergistic and antagonistic responses of herbicide combinations”, Weeds 15, p. 22ff., the value E, which is expected if the activity of the individual active compounds is only additive, was calculated. E=X+Y−(X·Y/100) where X=effect in percent using herbicide A at an application rate a; • Y=effect in percent using herbicide B at application rate b; • E=expected effect (in %) of herbicide A+herbicide B at application rates a+b.

Polygonum aviculare = assay: greenhouse post-emergence treatment, POLAV; conditions: POLAV
Method: as §1, §2, §3, §4, §5, §6, §7

Polygonum convolvulus = assay: greenhouse post-emergence treatment, POLCO; conditions: Fallopia convolvulus; for inhibition at 500000 µg/mL (stock): sc, 504 h, POLCO, 21 DAT
Method: as §1, §2, §3, §4, §5, §6, §7

Lolium multiflorum = assay: greenhouse post-emergence treatment, LOLMU; conditions: Lolium multiflorum, LOLMU; for inhibition at 500000 µg/mL (stock): sc, 504 h, 21 DAT
Method: as §1
(§8) To this end, the test plants were either sown directly, and grown in the same containers, or they were first grown separately as seedlings and transplanted into the test containers a few days prior to treatment.
as §3, §4, §5
(§9) In the examples, the solvent used was water.
(§10) In the examples below, using the method of S. R. Colby (1967) “Calculating synergistic and antagonistic responses of herbicide combinations”, Weeds 15, p. […] E=X+Y−(X·Y/100) where X=effect in percent using herbicide A at an application rate a; • Y=effect in percent using herbicide B at application rate b; • E=expected effect (in %) of herbicide A+herbicide B at application rates a+b.

Galium aparine = assay: greenhouse post-emergence treatment, GALAP; conditions: Galium aparine, 504 h, GALAP, 21 DAT, solo metazachlor (SC 500 g/l) 250 gai/ha
Method: as §1, §2, §3, §4, §5, §6, §7

Brachiaria decumbens = assay: greenhouse post-emergence treatment, BRADC; conditions: for inhibition at 500000 µg/mL (stock): sc, 504 h, 21 DAT
Method: as §1, §2, §3, §4, §5, §6, §7

Stellaria media = assay: greenhouse post-emergence treatment, STEME; conditions: Stellaria media, sc, 504 h, STEME, 21 DAT
Method: as §1, §2, §3, §4, §5, §6, §7

Avena fatua = assay: greenhouse post-emergence treatment, AVEFA; conditions: Avena fatua, AVEFA; for inhibition at 500000 µg/mL (stock): sc, 504 h, 21 DAT; for pest or weed control at 12.5 g/ha: 480 h, 20 DAT
Method: as §1, §8, §3, §4, §5, §9, §10

Digitaria sanguinalis = assay: greenhouse post-emergence treatment, DIGSA; conditions: Digitaria sanguinalis, sc, 504 h, DIGSA, 21 DAT
Method: as §1, §8, §3, §4, §5, §9, §10

Matricaria chamomilla = assay: greenhouse post-emergence treatment, MATCH; conditions: Matricaria chamomilla; for inhibition at 500000 µg/mL (stock): sc, 504 h, MATCH, 21 DAT
Method: as §1, §2, §3, §4, §5, §6, §7

Setaria viridis = assay: greenhouse post-emergence treatment, SETVI; conditions: Setaria viridis, sc, 504 h, SETVI, 21 DAT, solo metazachlor (SC 500 g/l) 31.25 gai/ha
Method: as §1, §8, §3, §4, §5, §9, §10

Papaver rhoeas = assay: greenhouse post-emergence treatment, PAPRH; conditions: Papaver rhoeas, 480 h, PAPRH, 20 DAT
Method: as §1, §2, §3, §4, §5, §6, §7

Bromus sterilis = assay: greenhouse post-emergence treatment, BROST
Method: as §1, §8, §3, §4, §5, §9, §10

[1] = solo metazachlor (SC 500 g/l) 31.25 gai/ha
[2] = solo metazachlor (SC 500 g/l) 62.5 gai/ha
[3] = solo metazachlor (SC 500 g/l) 125 gai/ha
[4] = solo metazachlor (SC 500 g/l) 250 gai/ha
[5] = solo cycloxydim (EC 100 g/l) 12.5 gai/ha

In the case of Cc1cccc(C)c1N(Cn1cccn1)C(=O)CCl [metazachlor], the inhibition at 500000 µg/mL (stock) (Poa annua; 504 h, POAAN, 21 DAT, solo metazachlor (SC 500 g/l) 250 gai/ha) is reported as 85%, the inhibition at 500000 µg/mL (stock) (Polygonum aviculare; Polygonum aviculare, 504 h, 21 DAT, solo metazachlor (SC 500 g/l) 125 gai/ha) is reported as 25% and the “% activity” value (Polygonum aviculare; metazachlor solo (SC 500 g/l), 31.25 gai/ha, 21 DAT) is reported as 20%. The inhibition at 500000 µg/mL (stock) (Polygonum convolvulus; [1]) was 0%, the inhibition at 500000 µg/mL (stock) (Polygonum convolvulus; [2]) was 0% and the inhibition at 500000 µg/mL (stock) (Polygonum convolvulus; [3]) was 10%. The inhibition at 500000 µg/mL (stock) (Polygonum convolvulus; [4]) was 20%, the inhibition at 500000 µg/mL (stock) (Lolium multiflorum; [1]) was 30% and the inhibition at 500000 µg/mL (stock) (Lolium multiflorum; [3]) was 85%. It also gave an inhibition at 500000 µg/mL (stock) (Lolium multiflorum; [4]) of 85%, an inhibition at 500000 µg/mL (stock) (Galium aparine) of 85% and an inhibition at 500000 µg/mL (stock) (Brachiaria decumbens; Urochloa decumbens, BRADC, solo metazachlor (SC 500 g/l) 31.25 gai/ha) of 10%. It also gave an inhibition at 500000 µg/mL (stock) (Brachiaria decumbens; Urochloa decumbens, BRADC, solo metazachlor (SC 500 g/l) 62.5 gai/ha) of 20%, an inhibition at 500000 µg/mL (stock) (Brachiaria decumbens; Urochloa decumbens, BRADC, solo metazachlor (SC 500 g/l) 125 gai/ha) of 25% and an inhibition at 500000 µg/mL (stock) (Brachiaria decumbens; Urochloa decumbens, BRADC, solo metazachlor (SC 500 g/l) 250 gai/ha) of 60%. The inhibition at 500000 µg/mL (stock) (Stellaria media; [1]) was 0%, the inhibition at 500000 µg/mL (stock) (Stellaria media; [2]) was 0% and the inhibition at 500000 µg/mL (stock) (Stellaria media; [3]) was 25%. The inhibition at 500000 µg/mL (stock) (Stellaria media; [4]) was 35%, the inhibition at 500000 µg/mL (stock) (Avena fatua; [2]) was 10% and the inhibition at 500000 µg/mL (stock) (Avena fatua; [3]) was 0%. The inhibition at 500000 µg/mL (stock) (Avena fatua; [4]) was 10%, the inhibition at 500000 µg/mL (stock) (Digitaria sanguinalis; [1]) was 0% and the inhibition at 500000 µg/mL (stock) (Digitaria sanguinalis; [4]) was 75%. The inhibition at 500000 µg/mL (stock) (Matricaria chamomilla; [1]) was 0%, the inhibition at 500000 µg/mL (stock) (Matricaria chamomilla; [2]) was 0% and the inhibition at 500000 µg/mL (stock) (Matricaria chamomilla; [4]) was 20%. The inhibition at 500000 µg/mL (stock) (Setaria viridis) was 65%.

With CCCC(=NOCC)C1=C(O)CC(C2CCCSC2)CC1=O (centres unmarked) [cycloxydim] the pest or weed control at 12.5 g/ha (Poa annua; 480 h) was 0%, the pest or weed control at 25 g/ha (Poa annua; 480 h) was 0% and the pest or weed control at 50 g/ha (Poa annua; 480 h) was 0%. For the same compound, the pest or weed control at 100 g/ha (Poa annua; 480 h) was 0%, the “% activity” value (Polygonum aviculare; 20 DAT, solo cycloxydim (EC 100 g/l) 12.5 gai/ha) was 0% and the “% activity” value (Polygonum aviculare; 20 DAT, solo cycloxydim (EC 100 g/l) 25 gai/ha) was 0%. The “% activity” value (Polygonum aviculare; 20 DAT, solo cycloxydim (EC 100 g/l) 50 gai/ha) was 0%, the “% activity” value (Polygonum aviculare; 20 DAT, solo cycloxydim (EC 100 g/l) 100 gai/ha) was 0% and the “% activity” value (Polygonum aviculare; cycloxydim solo (EC 100 g/l), 12.5 gai/ha, 20 DAT) was 0%. The “% activity” value (Polygonum aviculare; cycloxydim solo (EC 100 g/l), 25 gai/ha, 20 DAT) was 0%, the “% activity” value (Polygonum aviculare; cycloxydim solo (EC 100 g/l), 100 gai/ha, 20 DAT) was 0% and the pest or weed control at 12.5 g/ha (Papaver rhoeas; [5]) was 0%. The pest or weed control at 100 g/ha (Papaver rhoeas; solo cycloxydim (EC 100 g/l) 100 gai/ha) was 0%, the “% activity” value (Bromus sterilis; BROST, 20 DAT, solo cycloxydim (EC 100 g/l) 12.5 gai/ha) was 25% and the pest or weed control at 12.5 g/ha (Bromus sterilis; Bromus sterilis, 480 h) was 25%. For the same compound, the pest or weed control at 12.5 g/ha (Polygonum convolvulus; 480 h) was 0%, the pest or weed control at 25 g/ha (Polygonum convolvulus; 480 h) was 0% and the pest or weed control at 50 g/ha (Polygonum convolvulus; 480 h) was 0%. For the same compound, the pest or weed control at 100 g/ha (Polygonum convolvulus; 480 h) was 0%, the pest or weed control at 12.5 g/ha (Lolium multiflorum; 480 h, cycloxydim solo (EC 100 g/l), 12.5 gai/ha, 20 DAT) was 90% and the “% activity” value (Brachiaria decumbens; BRADC, 20 DAT, solo cycloxydim (EC 100 g/l) 12.5 gai/ha) was 65%. The pest or weed control at 12.5 g/ha (Brachiaria decumbens; Urochloa decumbens, 480 h) was 65%, the pest or weed control at 12.5 g/ha (Avena fatua; [5]) was 20% and the pest or weed control at 12.5 g/ha (Avena fatua; cycloxydim solo (EC 100 g/l), 12.5 gai/ha) was 20%. The pest or weed control at 12.5 g/ha (Matricaria chamomilla; 480 h) was 0%, the pest or weed control at 25 g/ha (Matricaria chamomilla; 480 h) was 0% and the pest or weed control at 50 g/ha (Matricaria chamomilla; 480 h) was 0%. It also gave a pest or weed control at 100 g/ha (Matricaria chamomilla; 480 h) of 0%.
